The values below come from patent US11813306B2, “Cyclic tetramer compounds as proprotein convertase subtilisin/kexin type 9 (PCSK9) inhibitors for the treatment of metabolic disorders” (NOVARTIS AG, priority 2018, dated 2023).

In the test the target is human PCSK9 (Homo sapiens, UniProt Q8NBP7). Nature of the test: PCSK9 ligand binding assay (TR-FRET): interference with binding of human PCSK9 to human LDLR. The settings on record: for IC50: Human PCSK9 Alexa Fluor 647 / Human LDLR extracellular domain-Europium Kryptate; for Max % inhibition: efficacy (Amax), 100% = 1 uM unlabeled human PCSK9, 0% = DMSO. In short, it runs like this:
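Read-out was TR-FRET ratio (665 nm over 615 nm, 330 nm excitation) between Alexa Fluor 647-human PCSK9 (16 nM added) and Europium Kryptate-human LDLR ectodomain (4 nM added). Compound and PCSK9 were mixed 30 min before LDLR, then incubated 2 h. Inhibition was normalised to DMSO and unlabelled-PCSK9 controls, giving IC50 and Amax.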
On the technique in general: In TR-FRET formats the signal depends on donor and acceptor labels being close together.

Sequence of human PCSK9 (Q8NBP7 153-692): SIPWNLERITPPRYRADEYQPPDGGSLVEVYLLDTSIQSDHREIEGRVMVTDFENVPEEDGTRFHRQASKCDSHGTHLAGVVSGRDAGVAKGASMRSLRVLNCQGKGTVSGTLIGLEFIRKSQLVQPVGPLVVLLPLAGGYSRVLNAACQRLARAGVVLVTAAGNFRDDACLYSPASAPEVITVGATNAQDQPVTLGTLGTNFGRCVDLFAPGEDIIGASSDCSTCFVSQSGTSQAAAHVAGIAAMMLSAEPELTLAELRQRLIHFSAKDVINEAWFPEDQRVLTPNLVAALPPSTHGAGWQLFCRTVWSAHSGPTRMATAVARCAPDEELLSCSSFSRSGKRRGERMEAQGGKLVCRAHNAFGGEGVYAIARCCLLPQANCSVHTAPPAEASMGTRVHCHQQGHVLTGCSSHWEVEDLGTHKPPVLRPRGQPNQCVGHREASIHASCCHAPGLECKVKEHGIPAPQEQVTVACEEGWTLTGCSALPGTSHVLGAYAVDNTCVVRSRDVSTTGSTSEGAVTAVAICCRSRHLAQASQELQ
Sequence of human PCSK9 (Q8NBP7 31-152 partner limits assumed): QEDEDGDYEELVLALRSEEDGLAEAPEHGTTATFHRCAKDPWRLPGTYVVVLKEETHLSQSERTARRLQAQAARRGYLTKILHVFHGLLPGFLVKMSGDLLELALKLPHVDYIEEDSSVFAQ

On to `COC[C@@H]1NC(=O)[C@H](C)N(Cc2ccc(Cl)cc2Oc2ccc(-c3cnc(CN4CCN(C)CC4)n3C)cc2)C(=O)C[C@@H](Cc2ccccc2)C(=O)N2CCC[C@@](Cc3ccc(Cl)cc3)(C2)NC1=O.Cl` [Compound 76, (3R, 7S, 10S, 13R)-3-benzyl-6-(4-chloro-2-(4-(1-methyl-2-((4-methylpiperazin-1-yl)methyl)-1H-imidazol-5-yl)phenoxy)benzyl)-13-(4-chlorobenzyl)-10-(methoxymethyl)-7-methyl-1,6,9,12-tetraazabicyclo[11.3.1]heptadecane-2,5,8,11-tetraone], for which the IC50 (usually the concentration that inhibits the measured activity by half) came to 0.81 nM and the Max % inhibition is 101.7%.

In the case of `C[C@H]1C(=O)N[C@@H](CO)C(=O)N[C@@]2(Cc3ccc(Cl)cc3)CCCN(C2)C(=O)[C@H]([C@@H]2CCc3ccccc32)CC(=O)N1Cc1ccc(Cl)cc1Oc1ccc(-c2cnc(C3=CCN(C)C3)n2C)cc1.Cl` [Compound 77, (3S,7S,10S,13R)-6-(4-chloro-2-(4-(1-methyl-2-(1-methyl-2,5-dihydro-1H-pyrrol-3-yl)-1H-imidazol-5-yl)phenoxy)benzyl)-13-(4-chlorobenzyl)-3-((S)-2,3-dihydro-1H-inden-1-yl)-10-(hydroxymethyl)-7-methyl-1,6,9,12-tetraazabicyclo[11.3.1]heptadecane-2,5,8,11-tetraone hydrochloride], the half-inhibitory concentration (IC50) was 0.979 nM and the Max % inhibition is reported as 71.9%.

In the case of `C[C@H]1C(=O)N[C@@H](CO)C(=O)N(C)[C@@]2(Cc3ccc(Cl)cc3)CCCN(C2)C(=O)[C@H](Cc2ccccc2)CC(=O)N1Cc1c(F)cc(Cl)cc1Oc1ccc(-c2cnc(CN(C)C)n2C)cc1` [Compound 79, (3R, 7S, 10S, 13R)-3-benzyl-6-(4-chloro-2-(4-(2-((dimethylamino)methyl)-1-methyl-1H-imidazol-5-yl)phenoxy)-6-fluorobenzyl)-13-(4-chlorobenzyl)-10-(hydroxymethyl)-7,12-dimethyl-1,6,9,12-tetraazabicyclo[11.3.1]heptadecane-2,5,8,11-tetraone], the half-maximal inhibitory concentration (IC50) is 0.819 nM and the Max % inhibition was 108.3%.

Consider `C[C@H]1C(=O)N[C@@H](CO)C(=O)N[C@@]2(Cc3ccc(Cl)cc3)CCCN(C2)C(=O)[C@H](Cc2cccc(C(F)(F)F)c2)CC(=O)N1Cc1c(F)cc(Cl)cc1Oc1ccc(-c2cnc(CN(C)C)n2C)cc1` [Compound 80, (3R, 7S, 10S, 13R)-6-(4-chloro-2-(4-(2-((dimethylamino)methyl)-1-methyl-1H-imidazol-5-yl)phenoxy)-6-fluorobenzyl)-13-(4-chlorobenzyl)-10-(hydroxymethyl)-7-methyl-3-(3-(trifluoromethyl)benzyl)-1,6,9,12-tetraazabicyclo[11.3.1]heptadecane-2,5,8,11-tetraone], for which the IC50 turned out to be 0.624 nM and the Max % inhibition is reported as 106.6%.

Consider `C[C@H]1C[C@H]([C@@H]2CC(=O)N(Cc3ccc(Cl)cc3Oc3ccc(-c4cnc(CN(C)C)n4C)cc3)[C@@H](C)C(=O)N[C@@H](CO)C(=O)N(C)[C@H](Cc3ccc(Cl)cc3)CN(C)C2=O)c2ccccc21.Cl` [Compound 81, (2S, 5S, 8R, 12S)-1-(4-chloro-2-(4-(2-((dimethylamino)methyl)-1-methyl-1H-imidazol-5-yl)phenoxy)benzyl)-8-(4-chlorobenzyl)-5-(hydroxymethyl)-2,7,10-trimethyl-12-((1R,3S)-3-methyl-2,3-dihydro-1H-inden-1-yl)-1,4,7,10-tetraazacyclotetradecane-3,6,11,14-tetraone], for which the concentration for half-maximal inhibition (IC50) is 0.95 nM and the Max % inhibition was 105.6%.

As for `C[C@H]1C(=O)N[C@@H](CO)C(=O)N(C)[C@@]2(Cc3ccc(Cl)cc3)CCCN(C2)C(=O)[C@H](CC(F)(F)F)CC(=O)N1Cc1c(F)cc(Cl)cc1Oc1ccc(-c2cnc(CN(C)C)n2C)cc1` [Compound 82, (3S,7S,10S,13R)-6-(4-Chloro-2-(4-(2-((dimethylamino)methyl)-1-methyl-1H-imidazol-5-yl)phenoxy)-6-fluorobenzyl)-13-(4-chlorobenzyl)-10-(hydroxymethyl)-7,12-dimethyl-3-(2,2,2-trifluoroethyl)-1,6,9,12-tetraazabicyclo[11.3.1]heptadecane-2,5,8,11-tetraone], the IC50 was determined as 0.37 nM and the Max % inhibition is on record as 108.5%.

Regarding `C[C@H]1C(=O)N[C@@H](CO)C(=O)N[C@@]2(Cc3ccc(Cl)cc3)CCCN(C2)C(=O)[C@H](CC(F)(F)F)CC(=O)N1Cc1ccc(Cl)cc1Oc1ccc(-c2cnc(CN(C)C)n2C)cc1` [Compound 83, (3S,7S,10S,13R)-6-(4-Chloro-2-(4-(2-((dimethylamino)methyl)-1-methyl-1H-imidazol-5-yl)phenoxy)benzyl)-13-(4-chlorobenzyl)-10-(hydroxymethyl)-7-methyl-3-(2,2,2-trifluoroethyl)-1,6,9,12-tetraazabicyclo[11.3.1]heptadecane-2,5,8,11-tetraone], the IC50 was found to be 0.347 nM and the Max % inhibition was 112.4%.

For the compound `C[C@H]1C(=O)N[C@@H](CO)C(=O)N[C@@]2(Cc3ccc(Cl)cc3)CCCN(C2)C(=O)[C@H]([C@@H]2CCc3ccccc32)CC(=O)N1Cc1ccc(Cl)cc1Oc1ccc(-c2cnc(CN(C)C)n2C)cc1.Cl` [Compound 84, (3S, 7S, 10S, 13R)-6-(4-chloro-2-(4-(2-((dimethylamino)methyl)-1-methyl-1H-imidazol-5-yl)phenoxy)benzyl)-13-(4-chlorobenzyl)-3-((S)-2,3-dihydro-1H-inden-1-yl)-10-(hydroxymethyl)-7-methyl-1,6,9,12-tetraazabicyclo[11.3.1]heptadecane-2,5,8,11-tetraone], the IC50 stood at 1.68 nM and the Max % inhibition was 101.9%.

For `COC[C@@H]1NC(=O)[C@H](C)N(Cc2ncc(Cl)cc2Oc2ccc(-c3cnc(CN(C)C)n3C)nc2)C(=O)C[C@@H](Cc2ccccc2)C(=O)N2CCC[C@@](Cc3ccc(Cl)cc3)(C2)N(C)C1=O` [Compound 85], the IC50 was determined as 1.41 nM and the Max % inhibition was found to be 101.7%.

With `C[C@H]1C(=O)N[C@@H](CO)C(=O)N[C@@]2(Cc3ccc(Cl)cc3)CCCN(C2)C(=O)[C@H](Cc2ccccc2)CC(=O)N1Cc1c(F)cc(Cl)cc1Oc1ccc(-c2cnc(CN(C)C)n2C)cc1F` [Compound 87, (3R, 7S, 10S, 13R)-3-benzyl-6-(4-chloro-2-(4-(2-((dimethylamino)methyl)-1-methyl-1H-imidazol-5-yl)-2-fluorophenoxy)-6-fluorobenzyl)-13-(4-chlorobenzyl)-10-(hydroxymethyl)-7-methyl-1,6,9,12-tetraazabicyclo[11.3.1]heptadecane-2,5,8,11-tetraone], the IC50 amounted to 0.58 nM and the Max % inhibition is listed as 111.7%.

As to `CCn1c(-c2ccc(Oc3cc(Cl)cc(F)c3CN3C(=O)C[C@@H](CC(F)(F)F)C(=O)N4CCC[C@@](Cc5ccc(Cl)cc5)(C4)NC(=O)[C@H](CO)NC(=O)[C@@H]3C)cc2)cnc1CN(C)C` [Compound 88, (3S, 7S, 10S, 13R)-6-(4-chloro-2-(4-(2-((dimethylamino)methyl)-1-ethyl-1H-imidazol-5-yl)phenoxy)-6-fluorobenzyl)-13-(4-chlorobenzyl)-10-(hydroxymethyl)-7-methyl-3-(2,2,2-trifluoroethyl)-1,6,9,12-tetraazabicyclo[11.3.1]heptadecane-2,5,8,11-tetraone], the 50% inhibitory concentration (IC50) is 3.16 nM and the Max % inhibition turned out to be 99.0%.

Consider `C[C@H]1C(=O)N[C@@H](CO)C(=O)N(C)[C@H](Cc2ccc(Cl)cc2)CNC(=O)[C@H](Cc2ccccc2)CC(=O)N1Cc1ccc(Cl)cc1Oc1ccc(-c2cnc(CN3CCCC3)n2C)cc1.Cl` [Compound 89, (2S, 5S, 8R, 12R)-12-benzyl-1-(4-chloro-2-(4-(1-methyl-2-(pyrrolidin-1-ylmethyl)-1H-imidazol-5-yl)phenoxy)benzyl)-8-(4-chlorobenzyl)-5-(hydroxymethyl)-2,7-dimethyl-1,4,7,10-tetraazacyclotetradecane-3,6,11,14-tetraone], for which the IC50 came out at 1.51 nM and the Max % inhibition amounted to 104.5%.

Turning to `C[C@H]1C(=O)N[C@@H](CO)C(=O)N[C@@]2(Cc3ccc(Cl)cc3)CCCN(C2)C(=O)[C@H]([C@@H]2CCc3ccccc32)CC(=O)N1Cc1ccc(C(F)(F)F)cc1Oc1ccc(-c2cnc(CN(C)C)n2C)cc1` [Compound 90], the IC50 worked out at 1.71 nM and the Max % inhibition amounted to 99.2%.

For the compound `C[C@H]1C(=O)N[C@@H](CO)C(=O)N(C)[C@H](Cc2ccc(Cl)cc2)CN(C)C(=O)[C@H]([C@H]2CCc3ccccc32)CC(=O)N1Cc1ccc(Cl)cc1Oc1ccc(-c2cnc(CN(C)C)n2C)cc1.Cl` [Compound 91, (2S, 5S, 8R, 12S)-1-(4-chloro-2-(4-(2-((dimethylamino)methyl)-1-methyl-1H-imidazol-5-yl)phenoxy)benzyl)-8-(4-chlorobenzyl)-12-((R)-2,3-dihydro-1H-inden-1-yl)-5-(hydroxymethyl)-2,7,10-trimethyl-1,4,7,10-tetraazacyclotetradecane-3,6,11,14-tetraone], the half-inhibitory concentration (IC50) was 1.83 nM and the Max % inhibition was 104.8%.

Turning to `COC[C@@H]1NC(=O)[C@H](C)N(Cc2ccc(Cl)cc2Oc2ccc(-c3cnc(CN4CCCC4)n3C)cc2)C(=O)C[C@@H](Cc2ccccc2)C(=O)NC[C@@H](Cc2ccc(Cl)cc2)N(C)C1=O.Cl` [Compound 92, (2S, 5S, 8R, 12R)-12-benzyl-1-(4-chloro-2-(4-(1-methyl-2-(pyrrolidin-1-ylmethyl)-1H-imidazol-5-yl)phenoxy)benzyl)-8-(4-chlorobenzyl)-5-(methoxymethyl)-2,7-dimethyl-1,4,7,10-tetraazacyclotetradecane-3,6,11,14-tetraone], the 50% inhibitory concentration (IC50) was 2.37 nM and the Max % inhibition was found to be 104.1%.
